ChEMBL document CHEMBL1201862, “PubChem BioAssay data set” (2004)
Calls of active or inactive are those of the source.

Tests used:
[1] = cytotoxicity in HPDE-C7 cells, cell-based, fluorescence, HTS (AID 430); format: functional; settings: Homo sapiens
[2] = inhibitors of intracellular T. cruzi replication, confirmation, NIH3T3 host cells, beta-gal luminescence (AID 2044); format: functional, cell-based;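 further: intracellular parasites grown in NIH/3T3 mouse fibroblasts as host cells; luminescent beta-galactosidase reporter signal from transgenic T. cruzi replicating inside host cells; inhibitors lower the luminescence signal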
[3] = cytotoxicity in KRAS-transformed pancreatic duct cells, primary screen, cell-based, fluorescence, HTS (AID 431); format: functional; settings: Homo sapiens;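 further: cell line used: HPDE-C7K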
[4] = cytotoxicity toward NIH3T3 fibroblasts, dose response, counter-screen, cell-based, ATP luminescence, mouse fibroblasts (AID 2010); format: functional;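 further: cells exposed to compound for about 90 hours before reading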
[5] = biological target: Glucose-6-phosphate 1-dehydrogenase (Homo sapiens, UniProt P11413); assay: human G6PD enzyme inhibitors, dose response, selectivity assay for P. falciparum G6PD inhibitor project, biochemical, fluorescence (AID 504792); format: functional
Glucose-6-phosphate 1-dehydrogenase, sequence (P11413 whole entry): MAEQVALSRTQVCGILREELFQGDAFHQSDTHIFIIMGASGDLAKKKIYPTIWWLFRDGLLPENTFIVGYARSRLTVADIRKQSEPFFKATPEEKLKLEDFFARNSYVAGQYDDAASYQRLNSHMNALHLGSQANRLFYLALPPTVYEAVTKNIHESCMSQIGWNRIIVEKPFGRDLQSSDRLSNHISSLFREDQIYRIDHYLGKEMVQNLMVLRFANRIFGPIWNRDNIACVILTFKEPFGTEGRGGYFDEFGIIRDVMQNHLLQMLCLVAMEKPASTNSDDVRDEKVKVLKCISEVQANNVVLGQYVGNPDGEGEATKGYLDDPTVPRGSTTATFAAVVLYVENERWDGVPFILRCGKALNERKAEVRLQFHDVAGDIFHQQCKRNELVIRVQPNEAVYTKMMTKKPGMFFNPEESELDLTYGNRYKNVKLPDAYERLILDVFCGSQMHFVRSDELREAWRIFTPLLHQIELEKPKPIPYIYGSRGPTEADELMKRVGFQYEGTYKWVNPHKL

[6] = biological target: Neurotensin receptor type 1 (Homo sapiens, UniProt P30989); format: functional;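 further: Image-based confirmatory dose-response assay measuring agonist activity at NTR1; NTR1-expressing U2OS osteosarcoma cells imaged for beta-arrestin GFP spot formation; agonist potency where compounds increase beta-arrestin recruitment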
Neurotensin receptor type 1, sequence (P30989 whole entry): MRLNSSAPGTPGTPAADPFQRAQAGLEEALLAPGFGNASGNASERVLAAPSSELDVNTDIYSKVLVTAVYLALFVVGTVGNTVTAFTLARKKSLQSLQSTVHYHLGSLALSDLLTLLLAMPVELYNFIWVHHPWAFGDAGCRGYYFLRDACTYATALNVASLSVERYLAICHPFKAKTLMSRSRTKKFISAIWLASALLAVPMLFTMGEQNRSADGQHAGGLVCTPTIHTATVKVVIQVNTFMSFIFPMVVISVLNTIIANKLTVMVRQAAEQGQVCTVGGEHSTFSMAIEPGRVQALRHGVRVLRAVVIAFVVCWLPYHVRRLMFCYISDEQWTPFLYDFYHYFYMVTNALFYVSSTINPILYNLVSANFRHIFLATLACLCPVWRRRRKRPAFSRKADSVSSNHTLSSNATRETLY

[7] = tested on: Vero; assay: cells; format: functional; settings: Chlorocebus sabaeus
[8] = Shn3 3'UTR reporter inhibitors, dose response, cell-based, Clone20 osteoblasts, firefly luciferase, cherry-picked (AID 624132); format: functional;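 further: firefly luciferase luminescence from reporter carrying the Shn3 3'UTR in osteoblasts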
[9] = HepG2 cell cytotoxicity, dose response, cytotoxicity control for Shn3 inhibitor project, CellTiter-Glo, cherry-picked (AID 624134); format: functional, cell-based
[10] = control 3'UTR Renilla luciferase suppression, dose response, counter-screen for Shn3 inhibitor project, cell-based, Clone20-Shn3RL, cherry-picked (AID 624133); format: functional
[11] = biological target: T1, Estrogen receptor (Homo sapiens, UniProt P03372);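 further: potency for inhibiting coactivator peptide recruitment to the receptor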
T1 sequence (P03372 whole entry): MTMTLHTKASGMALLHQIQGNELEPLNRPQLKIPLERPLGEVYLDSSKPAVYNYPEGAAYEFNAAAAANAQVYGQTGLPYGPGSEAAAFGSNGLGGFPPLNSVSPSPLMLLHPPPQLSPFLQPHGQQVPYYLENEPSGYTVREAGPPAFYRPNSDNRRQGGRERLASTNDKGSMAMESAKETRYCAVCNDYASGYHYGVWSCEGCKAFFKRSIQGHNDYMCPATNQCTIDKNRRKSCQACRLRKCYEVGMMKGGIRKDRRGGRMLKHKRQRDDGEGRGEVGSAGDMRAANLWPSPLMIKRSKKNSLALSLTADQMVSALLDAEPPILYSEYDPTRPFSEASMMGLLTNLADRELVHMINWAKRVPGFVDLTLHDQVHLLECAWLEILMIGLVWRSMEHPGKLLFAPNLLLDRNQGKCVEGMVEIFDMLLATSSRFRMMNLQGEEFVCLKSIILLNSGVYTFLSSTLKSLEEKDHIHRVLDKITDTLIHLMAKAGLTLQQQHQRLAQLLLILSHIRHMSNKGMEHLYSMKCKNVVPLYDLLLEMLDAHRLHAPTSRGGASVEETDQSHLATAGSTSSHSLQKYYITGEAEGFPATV

[12] = biological target: Luciferin 4-monooxygenase (Photinus pyralis, UniProt P08659); assay: Counter Screen for Luciferase-based Assay Positives. [Related pubchem assays: 620, 618, 411 ]
Luciferin 4-monooxygenase, sequence (P08659 whole entry): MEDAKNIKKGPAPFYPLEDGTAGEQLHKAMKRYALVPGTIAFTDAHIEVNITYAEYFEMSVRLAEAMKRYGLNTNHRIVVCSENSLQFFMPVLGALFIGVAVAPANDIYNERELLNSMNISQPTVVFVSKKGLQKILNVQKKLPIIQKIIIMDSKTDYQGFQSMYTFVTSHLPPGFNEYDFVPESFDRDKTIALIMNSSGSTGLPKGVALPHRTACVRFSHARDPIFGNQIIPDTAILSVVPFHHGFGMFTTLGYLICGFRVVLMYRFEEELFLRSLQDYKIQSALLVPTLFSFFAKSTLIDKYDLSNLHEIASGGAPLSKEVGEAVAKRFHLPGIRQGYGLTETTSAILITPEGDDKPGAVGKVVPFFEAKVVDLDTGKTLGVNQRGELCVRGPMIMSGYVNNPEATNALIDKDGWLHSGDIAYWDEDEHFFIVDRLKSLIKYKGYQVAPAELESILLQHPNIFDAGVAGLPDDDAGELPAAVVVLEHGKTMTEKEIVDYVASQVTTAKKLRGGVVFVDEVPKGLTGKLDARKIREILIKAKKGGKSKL

[13] = tested on: HT-1080; assay: cytotoxicity in HT1080 fibrosarcoma cells, cell-based, fluorescence readout (AID 620); format: functional; settings: Homo sapiens
[14] = biological target: Epstein-Barr nuclear antigen 1 (Epstein-Barr virus (strain B95-8) (HHV-4) (Human herpesvirus 4), UniProt P03211); assay: EBNA-1 inhibitors, dose response, biochemical, fluorescence polarization, 1536-well (AID 2381); set-up: species or system human gammaherpesvirus 4;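 further: fluorescence polarization of a Cy5 DNA probe bound by EBNA-1 protein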
Epstein-Barr nuclear antigen 1, sequence (P03211 whole entry): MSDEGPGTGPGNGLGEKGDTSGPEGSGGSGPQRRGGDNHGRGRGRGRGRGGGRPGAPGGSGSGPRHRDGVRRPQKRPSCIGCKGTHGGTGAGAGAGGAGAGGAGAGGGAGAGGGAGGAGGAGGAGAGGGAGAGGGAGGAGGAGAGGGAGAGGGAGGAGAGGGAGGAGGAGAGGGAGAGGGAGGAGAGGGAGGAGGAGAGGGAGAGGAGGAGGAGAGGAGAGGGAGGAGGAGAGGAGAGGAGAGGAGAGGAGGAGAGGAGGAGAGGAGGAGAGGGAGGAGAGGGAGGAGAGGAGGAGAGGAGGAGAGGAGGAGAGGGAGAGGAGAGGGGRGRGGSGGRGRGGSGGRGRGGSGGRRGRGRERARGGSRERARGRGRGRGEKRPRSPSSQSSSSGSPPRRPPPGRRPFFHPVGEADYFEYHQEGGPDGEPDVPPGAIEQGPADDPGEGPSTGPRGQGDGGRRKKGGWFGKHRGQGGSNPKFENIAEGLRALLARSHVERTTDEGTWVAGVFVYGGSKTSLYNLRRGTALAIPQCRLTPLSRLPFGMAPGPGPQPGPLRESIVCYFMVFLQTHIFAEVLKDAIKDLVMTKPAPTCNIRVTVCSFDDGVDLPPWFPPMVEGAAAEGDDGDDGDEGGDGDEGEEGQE

[15] = biological target: Lytic switch protein BZLF1 (Epstein-Barr virus (strain B95-8) (HHV-4) (Human herpesvirus 4), UniProt P03206); assay: EBV ZTA inhibitors, dose response, counter-screen for EBNA-1 inhibitor project, biochemical, fluorescence polarization, Epstein-Barr virus, 1536-well (AID 2377); set-up: species or system human gammaherpesvirus 4;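 further: fluorescence polarization of Cy5-labelled ZRE DNA probe bound by purified Zta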
Lytic switch protein BZLF1, sequence (P03206 whole entry): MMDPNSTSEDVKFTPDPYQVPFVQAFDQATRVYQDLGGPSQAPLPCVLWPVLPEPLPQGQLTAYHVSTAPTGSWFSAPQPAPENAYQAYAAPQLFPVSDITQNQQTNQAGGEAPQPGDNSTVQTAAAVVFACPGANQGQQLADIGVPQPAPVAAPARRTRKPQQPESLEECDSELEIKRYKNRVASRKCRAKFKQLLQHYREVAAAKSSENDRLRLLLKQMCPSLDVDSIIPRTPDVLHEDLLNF

[16] = biological target: T2, E3 ubiquitin-protein ligase XIAP (Homo sapiens, UniProt P98170); assay: Counter Screen using XIAP-Bir3 for Chemical Antagonists of Bir1/2 domains of IAP-family anti-apoptotic proteins. [Related pubchem assays (depositor defined):AID1018, AID1449, AID1514, AID1638, AID1749, AID1750, AID488957, AID488963]
T2 sequence (P98170 whole entry): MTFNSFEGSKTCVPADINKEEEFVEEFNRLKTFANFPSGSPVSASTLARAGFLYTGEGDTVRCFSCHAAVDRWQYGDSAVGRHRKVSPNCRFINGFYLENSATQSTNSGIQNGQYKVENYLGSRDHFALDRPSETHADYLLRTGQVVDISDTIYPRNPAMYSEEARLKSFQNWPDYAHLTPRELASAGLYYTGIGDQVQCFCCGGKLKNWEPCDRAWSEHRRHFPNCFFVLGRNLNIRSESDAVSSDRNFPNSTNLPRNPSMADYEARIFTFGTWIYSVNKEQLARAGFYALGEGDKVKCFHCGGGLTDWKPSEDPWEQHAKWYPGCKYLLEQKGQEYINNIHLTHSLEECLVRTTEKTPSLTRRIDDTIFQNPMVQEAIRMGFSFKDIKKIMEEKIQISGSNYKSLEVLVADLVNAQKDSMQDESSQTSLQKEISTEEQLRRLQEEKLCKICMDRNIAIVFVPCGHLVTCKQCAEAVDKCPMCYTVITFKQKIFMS

[17] = biological target: T2, E3 ubiquitin-protein ligase XIAP; assay: XIAP antagonists, biochemical, IAP family, fluorescence polarization (AID 1018); format: functional
[18] = tested on: BJ; assay: cytotoxicity toward BJ-TERT fibroblasts, dose response, cell-based, RAS-independent, luminescence (AID 1933); format: functional; settings: Homo sapiens
[19] = tested on: BJ; assay: cells; format: functional, cell-based; settings: Homo sapiens
[20] = tested on: BJ; assay: cytotoxicity toward BJ-TERT-LT-ST fibroblasts, dose response, cell-based, RAS-independent, luminescence (AID 1935); format: functional; settings: Homo sapiens;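 further: BJ fibroblasts immortalized with TERT plus LT and ST oncogenes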
[21] = cytotoxicity toward DRD oncogenic fibroblasts, dose response, cell-based, non-viral oncogenic, luminescence (AID 1934); format: functional; settings: Homo sapiens
[22] = tested on: HEK293; assay: inhibitors of LMP1-driven NF-kB reporter, dose response, cell-based, HEK293, luciferase, cherry-pick (AID 588343); format: functional; settings: Homo sapiens
[23] = cells; format: functional, cell-based
[24] = biological target: T3, Nuclear receptor subfamily 0 group B member 1 (Homo sapiens, UniProt P51843); format: functional, cell-based;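 further: HEK293T cells transfected with SF-1 and DAX-1 plus StAR promoter luciferase reporter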
T3 sequence (P51843 whole entry): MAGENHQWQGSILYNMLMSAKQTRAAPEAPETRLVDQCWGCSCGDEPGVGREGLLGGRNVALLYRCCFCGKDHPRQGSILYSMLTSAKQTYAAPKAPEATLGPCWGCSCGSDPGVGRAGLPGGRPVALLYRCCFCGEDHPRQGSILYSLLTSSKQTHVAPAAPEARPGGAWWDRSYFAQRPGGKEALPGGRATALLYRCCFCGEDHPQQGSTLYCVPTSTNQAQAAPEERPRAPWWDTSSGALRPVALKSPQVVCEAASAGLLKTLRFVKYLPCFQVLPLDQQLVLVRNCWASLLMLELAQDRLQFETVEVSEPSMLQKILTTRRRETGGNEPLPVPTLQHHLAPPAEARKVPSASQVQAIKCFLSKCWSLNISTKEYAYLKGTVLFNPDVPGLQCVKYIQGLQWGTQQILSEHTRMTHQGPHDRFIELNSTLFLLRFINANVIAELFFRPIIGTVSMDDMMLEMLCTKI

[25] = biological target: T4, Corticotropin-releasing factor receptor 2/Corticotropin-releasing factor-binding protein (Homo sapiens, UniProt P24387+Q13324); assay: Dose Response confirmation of uHTS hits for small molecule antagonists of the CRF-binding protein and CRF-R2 receptor complex.; format: functional; settings: read-out: IC50_Mean
T4 sequence (Q13324 whole entry): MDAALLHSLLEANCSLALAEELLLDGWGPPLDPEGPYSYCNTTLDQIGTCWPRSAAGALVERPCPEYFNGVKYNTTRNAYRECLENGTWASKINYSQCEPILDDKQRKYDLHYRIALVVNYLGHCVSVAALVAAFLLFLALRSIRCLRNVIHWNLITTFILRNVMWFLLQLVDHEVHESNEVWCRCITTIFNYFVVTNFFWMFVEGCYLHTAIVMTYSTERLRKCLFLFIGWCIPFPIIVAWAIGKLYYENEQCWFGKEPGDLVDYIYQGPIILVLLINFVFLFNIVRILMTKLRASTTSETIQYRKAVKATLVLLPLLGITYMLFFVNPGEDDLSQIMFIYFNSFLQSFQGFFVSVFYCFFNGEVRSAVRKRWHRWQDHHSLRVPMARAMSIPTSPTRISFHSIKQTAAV
T4 sequence (P24387 whole entry): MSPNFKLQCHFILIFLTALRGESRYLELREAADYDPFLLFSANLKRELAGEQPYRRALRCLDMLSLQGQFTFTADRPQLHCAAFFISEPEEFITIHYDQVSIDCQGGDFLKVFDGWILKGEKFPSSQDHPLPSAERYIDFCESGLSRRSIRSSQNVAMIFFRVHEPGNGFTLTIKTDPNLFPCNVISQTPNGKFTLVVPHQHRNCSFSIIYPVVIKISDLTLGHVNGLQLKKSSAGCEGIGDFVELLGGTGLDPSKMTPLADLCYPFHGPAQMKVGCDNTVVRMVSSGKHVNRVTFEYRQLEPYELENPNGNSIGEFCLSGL

[26] = biological target: T4, Corticotropin-releasing factor receptor 2/Corticotropin-releasing factor-binding protein; assay: activators of CRF receptor 2 with binding protein – uHTS hits, confirmation (AID 602473); format: functional; settings: read-out: EC50_Mean

In the case of `O=C(Nc1ccc(N2CCN(C(=O)c3ccco3)CC2)c(Cl)c1)c1cc2ccccc2o1`, the EC50 [1] is reported as 17.5 µM (active), the EC50 [2] is reported as 2.3 µM (active) and the EC50 [3] is reported as 16.2 µM (active). For the same compound, the EC50 [4] was 8.95 µM (active), the IC50 [5] was > 80 µM (inactive) and the EC50 [6] was 6 µM (active). The CC50 [7] was 11.2 µM (active), the AC50 [8] was 5 µM (active) and the AC50 [9] was 7.49 µM (active). The AC50 [10] was 17.6 µM (active).
With `CCOC(=O)C1=C(Nc2ccc(C)cc2)S/C(=C\c2cn(CC(=O)NCC3CCCO3)c3ccccc23)C1=O` (stereo not given) the IC50 [11] was 7.6 µM (active).
For `Fc1ccccc1OCCSc1nnnn1-c1ccccc1`, the EC50 [12] was 3.32 µM (active) and the EC50 [13] was > 50 µM (not active).
With `COc1ccc(C(=O)CSc2nnc(NC(=O)C3CC(=O)N(c4cccc(OC)c4)C3)s2)cc1` (stereo not given) the IC50 [14] was 5.9 µM (active) and the IC50 [15] was > 111 µM (not active).
With `Cc1sc2nc(CN(C(=O)NC3CCCCC3)C3CCCCC3)nc(O)c2c1C` the IC50 [16] was > 100 µM (inactive) and the IC50 [17] was > 100 µM (not active).
In the case of `c1ccc(C2=NN=C(NC3CC3)SC2)cc1`, the EC50 [18] is reported as 13.1 µM (active), the EC50 [12] is reported as 1.24 µM (active) and the EC50 [19] is reported as 12.4 µM (inconclusive). For the same compound, the EC50 [13] was > 50 µM (not active), the EC50 [20] was > 150 µM (inconclusive) and the EC50 [21] was 10.5 µM (active). The AC50 [22] was 2.58 µM (active), the IC50 [23] was > 67.6 µM (inactive) and the IC50 [24] was > 67.6 µM (inactive).
In the case of `COc1ccc(Cl)cc1NC(=O)CNc1ccccc1F`, the IC50 [16] is reported as > 100 µM (inactive), the IC50 [17] is reported as > 100 µM (not active) and the IC50 [25] is reported as > 47.1 µM (inactive). For the same compound, the EC50 [26] was > 53 µM (inactive).
